{"source": "paper doi:10.1101/2025.09.12.675753", "about": "“In search of nonlipogenic ABCA1 inducers (NLAI): precision coregulator TR-FRET identifies diverse signatures for LXR ligands” (bioRxiv, 2025)", "key": {"LXRβ [1]": {"target": "T1, LXRβ (Homo sapiens, UniProt P55055)", "T1 sequence (P55055 222-460 limits assumed)": "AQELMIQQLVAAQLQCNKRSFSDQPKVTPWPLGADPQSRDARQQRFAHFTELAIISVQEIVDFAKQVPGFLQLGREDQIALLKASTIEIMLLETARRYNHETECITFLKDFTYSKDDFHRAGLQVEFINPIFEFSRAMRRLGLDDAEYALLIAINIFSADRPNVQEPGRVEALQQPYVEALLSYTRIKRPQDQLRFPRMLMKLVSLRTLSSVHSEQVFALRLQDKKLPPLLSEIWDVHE", "conditions": "for LXR isoform selectivity, SRC-1 recruitment: LXRβ versus LXRα"}, "HepG2 cells [2]": {"system": "HepG2 cells", "assay": "Cytotoxicity seen in HepG2 cell treatment", "conditions": "higher concentrations"}, "LXRα [3]": {"target": "T2, LXRα (Homo sapiens, UniProt Q13133)", "T2 sequence (Q13133 209-447 limits assumed)": "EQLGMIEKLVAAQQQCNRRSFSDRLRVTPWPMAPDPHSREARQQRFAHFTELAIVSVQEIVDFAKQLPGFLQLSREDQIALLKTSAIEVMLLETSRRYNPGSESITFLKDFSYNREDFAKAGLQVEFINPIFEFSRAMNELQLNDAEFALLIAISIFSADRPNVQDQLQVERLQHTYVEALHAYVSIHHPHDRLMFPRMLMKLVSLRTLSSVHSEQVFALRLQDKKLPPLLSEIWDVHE", "conditions": "ligand alone, normalized to T0 (100%)"}, "HepG2 cells [4]": {"system": "HepG2 cells"}, "[5]": {"conditions": "po; cited from earlier work"}, "LXRα [6]": {"target": "T2, LXRα", "assay": "Corepressor (NCOR2, SMRT2) binding CRT, LXRα", "conditions": "absence of coactivator"}, "LXRβ [7]": {"target": "T1, LXRβ", "assay": "Corepressor (NCOR2, SMRT2) binding CRT, LXRβ", "conditions": "absence of coactivator"}, "PXR": {"target": "PXR (Homo sapiens, UniProt O75469)", "sequence (O75469 146-433 limits assumed)": "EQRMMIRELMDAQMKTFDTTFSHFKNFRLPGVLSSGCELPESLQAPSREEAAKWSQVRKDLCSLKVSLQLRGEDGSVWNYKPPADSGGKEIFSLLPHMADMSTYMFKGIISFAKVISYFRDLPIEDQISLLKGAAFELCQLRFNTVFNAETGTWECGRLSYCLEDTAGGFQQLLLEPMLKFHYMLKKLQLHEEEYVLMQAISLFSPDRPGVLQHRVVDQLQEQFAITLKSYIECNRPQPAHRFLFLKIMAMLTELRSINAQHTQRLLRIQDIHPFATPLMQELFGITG", "assay": "Lanthascreen CRT, SRC1-4 recruitment to PXR", "type": "biochemical", "conditions": "SRC1-4 coactivator"}, "C57Bl/6 mice": {"system": "C57Bl/6 mice", "set-up": "method as in PMID 15145986", "conditions": "cited from earlier work"}, "hamsters": {"system": "hamsters", "set-up": "method as in PMID 16024916", "conditions": "cited from earlier work"}, "cynomolgus monkeys": {"system": "cynomolgus monkeys", "set-up": "method as in PMID 16024916", "conditions": "cited from earlier work"}, "LXRα [8]": {"target": "T2, LXRα", "assay": "Multiplex precision CRT (pCRT), SRC1 and NCoR2, LXRα", "type": "biochemical", "set-up": "NR-LBD with short coregulator peptides as used in the present work; purchased Thermo Fisher Scientific PV4657", "conditions": "isoform not given"}, "LXRβ [9]": {"target": "T1, LXRβ", "assay": "Multiplex precision CRT (pCRT), SRC1 and NCoR2, LXRβ", "type": "biochemical", "set-up": "NR-LBD with short coregulator peptides as used in the present work; purchased Thermo Fisher Scientific PV4660", "conditions": "isoform not given"}, "LXRα [10]": {"target": "T2, LXRα", "set-up": "NR-LBD with short coregulator peptides as used in the present work; purchased Thermo Fisher Scientific PV4657; method as in PMID 16354658", "conditions": "CRT; cited from earlier work"}, "HepG2 cells [11]": {"system": "HepG2 cells", "set-up": "method as in PMID 28087808", "conditions": "cited from earlier work"}}, "note": "“Also recorded” adds a separate entry of the source. Like-named read-outs stand apart in the source and are kept apart here.", "data": [{"smiles": "CC(C)C(O)CC[C@@H](C)[C@H]1CC[C@H]2[C@@H]3CC=C4C[C@@H](O)CC[C@]4(C)[C@H]3CC[C@]12C", "note": "(stereo partly drawn) [24HC, 24-hydroxycholesterol]", "values": [{"measurement": "LXR isoform selectivity, SRC-1 recruitment", "setting": "LXRβ [1]", "result": "nonselective"}, {"measurement": "SRC-1 recruitment to LXRβ, efficacy/potency relative to T0", "setting": "LXRβ [1]; ligand alone, normalized to T0 (100%)", "result": "partial agonist"}, {"measurement": "Cytotoxicity", "setting": "HepG2 cells [2]", "result": "cytotoxic at higher concentrations"}, {"measurement": "SRC-1 recruitment to LXRα, efficacy relative to T0", "setting": "LXRα [3]", "result": "partial agonist"}]}, {"smiles": "CC(CCC(=O)N(C)C)C1CCC2C3CC=C4CC(O)CCC4(C)C3CCC12C", "note": "(stereo not drawn) [DMHCA, N,N-dimethyl-3β-hydroxy-cholenamide]", "values": [{"measurement": "LXR isoform selectivity, SRC-1 recruitment", "setting": "LXRβ [1]", "result": "nonselective"}, {"measurement": "Cytotoxicity", "setting": "HepG2 cells [4]", "result": "cytotoxic at higher concentrations"}, {"measurement": "Metabolic lability and oral bioavailability", "setting": "[5]", "result": "metabolically labile with poor oral bioavailability"}, {"measurement": "NCOR2 binding to LXRα, ligand effect", "setting": "LXRα [6]", "result": "little or no effect"}, {"measurement": "NCOR2 binding to LXRβ, ligand effect", "setting": "LXRβ [7]", "result": "little or no effect; also recorded: does not displace NCOR2 from LXRβ in the absence of SRC1"}, {"measurement": "SRC-1 recruitment to LXRα, efficacy relative to T0", "setting": "LXRα [3]", "result": "partial agonist activity at LXRα"}]}, {"smiles": "O=C(O)Cc1cccc(OCCCN(Cc2cccc(C(F)(F)F)c2Cl)CC(c2ccccc2)c2ccccc2)c1", "note": "[GW3965]", "values": [{"measurement": "PXR agonism/binding in CRT", "setting": "PXR", "result": "no binding to PXR"}, {"measurement": "Liver weight and TGs", "setting": "C57Bl/6 mice; 3 days treatment, GW3965 even at 100mg/kg/day", "result": "no effect on these liver markers"}, {"measurement": "SREBP1c and FAS expression in the liver", "setting": "C57Bl/6 mice; 3 days treatment", "result": "minimal increases in SREBP1c and FAS expression in the liver"}, {"measurement": "ABCA1 expression increase, peripheral macrophages", "setting": "C57Bl/6 mice; peripheral macrophages", "result": 7, "unit": "fold"}, {"measurement": "ABCA1 expression increase, small intestine", "setting": "C57Bl/6 mice; small intestine", "result": 8, "unit": "fold"}, {"measurement": "Plasma TG, LDL-C and VLDL-C", "setting": "hamsters", "result": "dose-dependent increase"}, {"measurement": "TG and LDL", "setting": "cynomolgus monkeys", "result": "no effect on TG"}, {"measurement": "Left-shift in the NCOR2 displacement curve, pCRT versus CRT", "setting": "LXRα [8]", "result": 100, "unit": "fold"}, {"measurement": "Left-shift in the NCOR2 displacement curve, pCRT versus CRT", "setting": "LXRβ [9]", "result": 100, "unit": "fold"}, {"measurement": "Concentration for weak recruitment of NCOR1 to LXRα", "setting": "LXRα [10]", "result": "> 1", "unit": "µM"}]}, {"smiles": "CN(CC(=O)Nc1ccc(F)c(F)c1F)C(=O)c1ccc2c(c1)OCCO2", "note": "[IMB-808]", "values": [{"measurement": "Lipogenicity in HepG2 cells", "setting": "HepG2 cells [11]", "result": "nonlipogenic in HepG2 cells"}]}]}
